Results: patent US20220125051A1, “PRE-HARVEST DESICCATION METHOD” (SYNGENTA CROP PROTECTION AG, priority 2019, published 2022)
Read-outs that look alike come from different tables or passages of the source.

Columns and labels:
Experiment in all cases: Post-emergence efficacy, Method A
Assay type in all cases: in vivo
[1] = system: Amaranthus palmeri (AMAPA); settings: Amaranthus palmeri, post-emergence, 312 h; Application Rate 500 g/Ha; evaluated after 13 days; Method A; read-out: Control of weed species after post-emergence application, AMAPA (100=total damage to plant; 0=no damage to plant)
Protocol: (§1) Seeds of a variety of test species were sown in standard soil in pots. After cultivation for 14 days (post-emergence) under controlled conditions in a glasshouse (at 24/16° C., day/night; 14 hours light; 65% humidity), the plants were sprayed with an aqueous spray solution derived from the dissolution of the technical active ingredient formula (I) in a small amount of acetone and a special solvent and emulsifier mixture referred to as IF50 (11.12% Emulsogen EL360 TM+44.44% N-methylpyrrolidone+44.44% Dowanol DPM glycol ether), to create a 50 g/I solution which was then diluted to required concentration using 0.25% or 1% Empicol ESC70 (Sodium lauryl ether sulphate)+1% ammonium sulphate as diluent. The test plants were then grown in a glasshouse under controlled conditions (at 24/16° C., day/night; 14 hours light; 65% humidity) and watered twice daily. After 13 days the test was evaluated (100=total damage to plant; 0=no damage to plant).
(§2) Ipomoea hederacea (IPOHE), Euphorbia heterophylla (EPHHL), Chenopodium album (CHEAL), Amaranthus palmeri (AMAPA), Lolium perenne (LOLPE), Digitaria sanguinalis (DIGSA), Eleusine indica (ELEIN), Echinochloa crus-galli (ECHCG), Setaria faberi (SETFA)

Lolium perenne (LOLPE) = settings: Lolium perenne, post-emergence, 312 h, evaluated after 13 days
Protocol: as §1, §2

[2] = system: Ipomoea hederacea (IPOHE); settings: Ipomoea hederacea, post-emergence, 312 h, Application Rate 500 g/Ha; evaluated after 13 days; Method A; read-out: Control of weed species after post-emergence application, IPOHE (100=total damage to plant; 0=no damage to plant)
Protocol: as §1, §2

[3] = system: Chenopodium album (CHEAL); settings: Chenopodium album, post-emergence, 312 h; Application Rate 500 g/Ha; evaluated after 13 days; Method A; read-out: Control of weed species after post-emergence application, CHEAL (100=total damage to plant; 0=no damage to plant)
Protocol: as §1, §2

[4] = system: Digitaria sanguinalis (DIGSA); settings: Digitaria sanguinalis, post-emergence, 312 h; Application Rate 500 g/Ha; evaluated after 13 days; Method A; read-out: Control of weed species after post-emergence application, DIGSA (100=total damage to plant; 0=no damage to plant)
Protocol: as §1, §2

Eleusine indica (ELEIN) = settings: Eleusine indica, post-emergence, 312 h; Application Rate 500 g/Ha; evaluated after 13 days; Method A; read-out: Control of weed species after post-emergence application, ELEIN (100=total damage to plant; 0=no damage to plant)
Protocol: as §1, §2

Setaria faberi (SETFA) = settings: Setaria faberi, post-emergence, 312 h; Application Rate 500 g/Ha; evaluated after 13 days; Method A; read-out: Control of weed species after post-emergence application, SETFA (100=total damage to plant; 0=no damage to plant)
Protocol: as §1, §2

[5] = system: Echinochloa crus-galli (ECHCG); settings: Echinochloa crus-galli, post-emergence, 312 h; Application Rate 500 g/Ha; evaluated after 13 days; Method A; read-out: Control of weed species after post-emergence application, ECHCG (100=total damage to plant; 0=no damage to plant)
Protocol: as §1, §2

[6] = Application Rate 500 g/Ha, Method A, read-out: Control of weed species after post-emergence application, LOLPE (100=total damage to plant; 0=no damage to plant)

| SMILES | pest or weed control at 500 g/ha [1] | pest or weed control at 500 g/ha (Lolium perenne (LOLPE); [6]) | pest or weed control at 500 g/ha [2] | pest or weed control at 500 g/ha [3] | pest or weed control at 500 g/ha [4] | pest or weed control at 500 g/ha (Eleusine indica (ELEIN)) | pest or weed control at 500 g/ha (Setaria faberi (SETFA)) | pest or weed control at 500 g/ha [5] | pest or weed control at 500 g/ha (Lolium perenne (LOLPE); Application rate 500 g/Ha, 100=total damage to plant, 0=no damage to plant, read-out: Control of weed species after post-emergence application, LOLPE) |
| --- | --- | --- | --- | --- | --- | --- | --- | --- | --- |
| N#Cc1ccc(-c2cc[n+](CCS(=O)(=O)[O-])nc2)nc1 [Compound A169] | 100% | 50% | 40% | 70% | 50% | 90% | 50% | 40% |  |
| CCOP(=O)(C[n+]1ccc(-c2ncccn2)cn1)OCC [Compound A230, 1-(diethoxyphosphorylmethyl)-4-pyrimidin-2-yl-pyridazin-1-ium 2,2,2-trifluoroacetate] | 50% | 0% | 20% | 60% | 70% | 10% | 50% | 60% |  |
| O=C(O)CC[n+]1ccc(-c2ncccn2)cn1 [Compound A125, 3-(4-pyrimidin-2-ylpyridazin-1-ium-1-yl)propanoic acid 2,2,2-trifluoroacetate] |  |  |  |  |  |  |  |  | 90% |
| O=P(O)(O)CCC[n+]1ccc(-c2ncccn2)cn1 [Compound A233] | 100% | 20% | 70% | 100% | 60% | 50% | 70% | 60% |  |
| CC(C[n+]1ccc(-c2ccncn2)cn1)C(=O)O (centres unmarked) [Compound A171] | 100% | 70% | 80% | 80% | 60% | 80% | 60% | 60% |  |
| N#Cc1ccc(-c2cc[n+](CCC(=O)O)nc2)nc1 [Compound A176] | 40% | 40% | 40% | 30% | 30% | 70% | 40% | 30% |  |
| CC(CS(=O)(=O)[O-])[n+]1ccc(-c2ncccn2)cn1 (centres unmarked) [Compound A181, 2-(4-pyrimidin-2-ylpyridazin-1-ium-1-yl)propane-1-sulfonate] | 90% | 90% | 80% | 90% | 80% | 100% | 60% | 100% |  |
| O=S(=O)([O-])N1CCCC1C[n+]1ccc(-c2ncccn2)cn1 (centres unmarked) [Compound A222] | 80% | 20% | 70% | 60% | 90% | 60% | 80% | 70% |  |
| OCC[n+]1ccc(-c2ncccn2)cn1 [Compound A195, 2-(4-pyrimidin-2-ylpyridazin-1-ium-1-yl)ethanol 2,2,2-trifluoroacetate] |  | 0% | 20% | 60% | 20% | 10% |  | 10% |  |
| Cc1cc(-c2cc[n+](CCS(=O)(=O)[O-])nc2)nc(C)n1 [Compound A231] | 100% | 60% | 60% | 90% | 80% | 60% | 60% | 50% |  |
| O=P([O-])(O)C[n+]1ccc(-c2ncccn2)cn1 [Compound A205, hydroxy-[(4-pyrimidin-2-ylpyridazin-1-ium-1-yl)methyl]phosphinate] | 80% | 40% | 80% | 60% | 80% | 60% | 80% | 60% |  |
| CC(CC[n+]1ccc(-c2ncccn2)cn1)S(=O)(=O)[O-] (centres unmarked) [Compound A185] | 100% | 30% | 30% | 80% | 30% | 30% | 50% | 40% |  |
| O=S(=O)([O-])CC(O)C[n+]1ccc(-c2ccncn2)cn1 (centres unmarked) [Compound A224] | 100% | 40% | 80% | 90% | 80% | 80% | 40% | 40% |  |
| NC(=O)c1ccc(-c2cc[n+](CCCS(=O)(=O)[O-])nc2)nc1 [Compound A183] | 10% | 10% | 20% | 0% | 30% | 10% | 10% | 20% |  |
| COC(=O)c1ccc(C[n+]2ccc(-c3ncccn3)cn2)cc1 [Compound A229] | 10% | 0% | 10% | 0% | 20% | 0% | 10% | 0% |  |
| O=C(O)c1ccc(C[n+]2ccc(-c3ncccn3)cn2)cc1 [Compound A228] | 80% | 0% | 60% | 60% | 20% | 10% | 10% | 10% |  |
| Cc1ccc(-c2cc[n+](CCC(=O)O)nc2)nc1 [Compound A199] |  | 0% | 10% | 40% | 50% | 10% | 30% | 20% |  |
| CCOP(=O)(O)CCC[n+]1ccc(-c2ncccn2)cn1 [Compound A232] | 100% | 20% | 0% | 90% | 90% | 50% | 80% | 100% |  |
